Molecular target: Glycogen synthase kinase-3 beta (Homo sapiens, UniProt P49841)
Assay: concentration-response blocking of human GSK3B – biochemical, luminescence, cell-free homogeneous, retest, dose response (AID 434954)

Glycogen synthase kinase-3 beta, sequence (P49841 whole entry): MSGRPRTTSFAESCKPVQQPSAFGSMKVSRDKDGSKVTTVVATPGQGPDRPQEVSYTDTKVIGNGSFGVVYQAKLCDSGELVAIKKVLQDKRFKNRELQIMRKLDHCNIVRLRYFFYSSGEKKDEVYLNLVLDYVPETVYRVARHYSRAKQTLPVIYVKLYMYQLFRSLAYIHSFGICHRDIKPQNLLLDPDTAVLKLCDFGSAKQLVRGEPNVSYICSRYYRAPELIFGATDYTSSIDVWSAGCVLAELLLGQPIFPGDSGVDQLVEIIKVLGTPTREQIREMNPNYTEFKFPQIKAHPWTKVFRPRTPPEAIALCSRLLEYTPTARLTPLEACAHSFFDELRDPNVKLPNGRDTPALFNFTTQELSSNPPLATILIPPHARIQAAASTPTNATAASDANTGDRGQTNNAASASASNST

`Cc1nc2nc(=O)c3c(n2[nH]1)NC1=C(C(=O)CC(C)(C)C1)C3c1ccccc1` (configuration not stated) [MLS000084334] gave an EC50 greater than 300 µM.
`O=C(CS(=O)(=O)c1ccccc1)c1cc2ccccc2oc1=O` [3-[2-(phenylsulfonyl)ethanoyl]chromen-2-one] showed an EC50 greater than 300 µM.
For `COC(=O)C1=C(C)N(CCc2cc(OC)c(OC)c(OC)c2)C(=O)N[C@H]1c1ccccc1` [methyl (6S)-4-methyl-2-oxo-6-phenyl-3-[2-(3,4,5-trimethoxyphenyl)ethyl]-1,6-dihydropyrimidine-5-carboxylate], the EC50 was greater than 300 µM.
For `CC(C)=CCc1c(O)c(CC=C(C)C)c2c(c1O)C(=O)CC(c1ccc(O)cc1)O2` (configuration not stated) [2-(4-hydroxyphenyl)-6,8-bis(3-methylbut-2-enyl)-5,7-bis(oxidanyl)-2,3-dihydrochromen-4-one], the EC50 was greater than 300 µM.
`Cc1cccc(-n2c(=O)c3c4c(sc3n3c(=S)[nH]nc23)CCC4)c1` [1-mercapto-4-(3-methylphenyl)-7,8-dihydro-6H-cyclopenta[4,5]thieno[3,2-e][1,2,4]triazolo[4,3-a]pyrimidin-5(4H)-one] showed an EC50 of 48.9 µM.
`CCOC(=O)c1nnn(-c2nonc2N)c1CN1CCc2ccccc2C1` [ethyl 1-(4-amino-1,2,5-oxadiazol-3-yl)-5-(3,4-dihydro-1H-isoquinolin-2-ylmethyl)triazole-4-carboxylate] showed an EC50 of 71.5 µM.
With `O=C1Nc2ccccc2/C1=N/c1cccc([N+](=O)[O-])c1` [MLS001194693] the EC50 was greater than 300 µM.
`COc1cc(C=C2SC(Nc3ccc(O)cc3)=NC2=O)cc(OC)c1OC` [SMR000414809] showed an EC50 greater than 300 µM.
Compound `Cc1nonc1-c1nnc(-c2nonc2N)[nH]1` [SMR000040798] has an EC50 of 29.7 µM.
Compound `CCN1CCN(c2cc(C)c3cc(NC(=O)CCC(=O)Nc4ccc(OC)cc4OC)ccc3n2)CC1` [N'-(2,4-dimethoxyphenyl)-N-[2-(4-ethyl-1-piperazinyl)-4-methyl-6-quinolinyl]butanediamide] has an EC50 greater than 300 µM.
`CCC1(CC)NC(=O)N(CC(=O)OCC(=O)Nc2sccc2C#N)C1=O` [[2-[(3-cyanothiophen-2-yl)amino]-2-oxoethyl] 2-(4,4-diethyl-2,5-dioxoimidazolidin-1-yl)acetate] showed an EC50 greater than 300 µM.
`O=C(COc1ccc(Cl)cc1)Nc1ncc([N+](=O)[O-])s1` showed an EC50 of 26.3 µM.
Compound `COc1cc([CH-]N=[O+]C)ccc1Oc1ccc([N+](=O)[O-])cc1[N+](=O)[O-]` [MLS000699890] has an EC50 greater than 300 µM.
`Cc1ccc(C(=O)NN=C2CCCc3ccccc32)c(C)c1` [MLS001005817] was tested, and the EC50 was greater than 300 µM.
`COc1ccccc1Nc1nc(NCCO)nc(N)c1[N+](=O)[O-]` was tested, and the EC50 was 87.6 µM.
Work on `Cc1ccc(-c2n[nH]c(=S)n2N=Cc2ccncc2)cc1` [SMR000269897] yielded an EC50 of 11.5 µM.
Compound `O=C(Nc1ccc(Cl)c(Cl)c1)Nc1ccccn1` [SMR000515062] has an EC50 of 47.2 µM.
With `Fc1ccc(CSc2ccc3nnc(-c4cccnc4)n3n2)cc1` [MLS000624295] the EC50 was greater than 300 µM.
Work on `O=C(O)c1ccc2c3n(nc2c1)-c1ccc(Cl)cc1CO3` [SMR000673552] yielded an EC50 of 55.5 µM.
For `Cc1cc2c(s1)NC(=O)CN=C2c1cccs1` [MLS000072965], the EC50 was 33.1 µM.
`CCc1nnc(NC(=O)c2ccc3c(=O)n4c(nc3c2)CCCCC4)s1` [MLS001007070] was tested, and the EC50 was greater than 300 µM.
In the case of `CN(C)c1nc(-c2ccccc2)nc(-c2ccc(Cl)cc2)c1C#N` [4-(4-chlorophenyl)-6-(dimethylamino)-2-phenylpyrimidine-5-carbonitrile], the EC50 is reported as greater than 300 µM.
`N#CCCN1CCCc2cc(/N=N/c3ccc(C(F)(F)F)cc3)ccc21` was tested, and the EC50 was greater than 300 µM.
`O=C1NC(=Nc2ccccc2)SC1=Cc1ccccc1` [5-Benzylidene-2-phenylimino-thiazolidin-4-one] was tested, and the EC50 was greater than 300 µM.
For `COc1ccc(C2=NOC(C(=O)Nc3cccnc3)C2)cc1` (configuration not stated) [SMR000130842], the EC50 was greater than 300 µM.
`CCCCc1cc(=O)oc2cc(C)c(CN3CCCC3)c(O)c12` [4-butyl-7-methyl-5-oxidanyl-6-(pyrrolidin-1-ylmethyl)chromen-2-one] gave an EC50 greater than 300 µM.
For `CC(C)=CCc1c(O)ccc2c1OC(c1ccc(O)c(O)c1)CC2=O` (configuration not stated) [2-(3,4-dihydroxyphenyl)-7-hydroxy-8-(3-methylbut-2-enyl)-2,3-dihydrochromen-4-one], the EC50 was 4.58 µM.
Compound `COc1ccc2nc(NC(=O)C3CCCO3)sc2c1` (configuration not stated) [N-(6-methoxy-1,3-benzothiazol-2-yl)-2-oxolanecarboxamide] has an EC50 greater than 300 µM.
Compound `CC1=C(C#N)C(=O)NC(=O)C1=CNc1ccc(S(=O)(=O)CCO)cc1` [(5Z)-5-[[[4-(2-hydroxyethylsulfonyl)phenyl]amino]methylidene]-4-methyl-2,6-bis(oxidanylidene)pyridine-3-carbonitrile] has an EC50 greater than 300 µM.
`O=C(Cn1cc2c(n1)CCCCC2)NC1CCN(Cc2ccccc2)CC1` [N-(1-benzylpiperidin-4-yl)-2-(5,6,7,8-tetrahydro-4H-cyclohepta[c]pyrazol-2-yl)acetamide] gave an EC50 greater than 300 µM.
`O=C1NCCCc2c1oc1cc(Br)c(O)c(Br)c21` [MLS000043345] showed an EC50 of 40.7 µM.
`COc1ccc(C2C3=C(CC(C)(C)CC3=O)N=C(C)C2C#N)cc1` (configuration not stated) [4-(4-methoxyphenyl)-2,7,7-trimethyl-5-oxidanylidene-1,4,6,8-tetrahydroquinoline-3-carbonitrile] was tested, and the EC50 was greater than 300 µM.
With `O=C(COc1ccc(S(=O)(=O)N2CCCC2)cc1Cl)Nc1ccc2c(c1)OCO2` [MLS000052177] the EC50 was greater than 300 µM.
`CCN(CC)S(=O)(=O)c1cccc(-n2cc(O)c(-c3ccccc3)c2N)c1` [SMR000368326] showed an EC50 greater than 300 µM.
`CC(C=Cc1ccccc1F)=NNC(=O)C(C)C` [N-[[(E)-4-(2-fluorophenyl)but-3-en-2-ylidene]amino]-2-methylpropanamide] showed an EC50 greater than 300 µM.
Work on `Nc1nonc1-n1nnc(C(=O)NN=Cc2ccccc2F)c1CN1CCOCC1` [1-(4-azanyl-1,2,5-oxadiazol-3-yl)-N-[(2-fluorophenyl)methylideneamino]-5-(morpholin-4-ylmethyl)-1,2,3-triazole-4-carboxamide] yielded an EC50 of 92.1 µM.
With `O=C1OCCC1Sc1nnc(-c2ccc(O)cc2)o1` (configuration not stated) [3-[[2-(4-oxo-1-cyclohexa-2,5-dienylidene)-3H-1,3,4-oxadiazol-5-yl]thio]-2-oxolanone] the EC50 was 14.3 µM.
`C=C(Cl)COc1ccc2c(CCCC)cc(=O)oc2c1` [4-butyl-7-(2-chloranylprop-2-enoxy)chromen-2-one] was tested, and the EC50 was greater than 300 µM.
With `Cc1cc(C)cc(NC(=O)NCC2CCN(Cc3cc(C)ccc3C)CC2)c1` [1-(3,5-dimethylphenyl)-3-[[1-[(2,5-dimethylphenyl)methyl]-4-piperidinyl]methyl]urea] the EC50 was greater than 300 µM.
In the case of `COc1ccc2nc3c(cc2c1)c(NC(=O)C1CCCO1)nn3CC(C)C` (configuration not stated) [N-[6-methoxy-1-(2-methylpropyl)-3-pyrazolo[3,4-b]quinolinyl]-2-oxolanecarboxamide], the EC50 is reported as 0.946 µM.
In the case of `CNC(=O)c1cc2cccc(OC)c2oc1=O`, the EC50 is reported as greater than 300 µM.
`COc1ccc(S(=O)(=O)NCC(c2ccc3c(c2)OCO3)N2CCOCC2)cc1` (configuration not stated) [N-[2-(1,3-benzodioxol-5-yl)-2-morpholin-4-ylethyl]-4-methoxybenzenesulfonamide] was tested, and the EC50 was greater than 300 µM.
Compound `CC[n+]1c(/C=C/N(C)c2ccccc2)oc2ccc(Cl)cc21` [SMR000184374] has an EC50 greater than 300 µM.
`O=C(NNC(=O)C1CC1)c1cc2cc3ccccc3nc2s1` [MLS000763570] was tested, and the EC50 was greater than 300 µM.
`O=Cc1cc(CCC(=O)O)ccc1O` [SMR000639316] gave an EC50 greater than 300 µM.
Work on `Cc1ccc2c(c1)N(C(=O)CCC(=O)NCc1ccccc1)CC(C)O2` (configuration not stated) yielded an EC50 greater than 300 µM.
Compound `CCC(NC(=O)Cc1c(C)c2cc3c(cc2oc1=O)OC(C)(C)CC3)C(=O)O` (configuration not stated) [MLS001215946] has an EC50 greater than 300 µM.
